Source: paper PMC9322451 (Clinical Pharmacology in Drug Development, 2022)

What was measured:
CYP2C9 = tested on: CYP2C9; design: method as in unpublished data; settings: ref unpublished data; cited from earlier work
[1] = Phase 1 part A: safety (TEAEs); type: in vivo, human; settings: for Any TEAE / Headache (TEAE) / Nasopharyngitis (TEAE) / SAE / Severe TEAE / Skin exfoliation (TEAE) / TEAE leading to death / TEAE leading to discontinuation: Part A
Experimental: The study was conducted sequentially in 2 parts. […] Eligible participants were admitted to the clinical unit for single‐dose evaluation from days −2 to 2 and from days 29 to 31 for steady‐state PK and safety evaluation. Participants self‐administered daily doses after an overnight fast of at least 10 hours on days 4 to 30, with outpatient visits on days 3, 4, 7, 14, 21, 32, 33, and 61 (Figure S1). […] Dosing of the 40‐mg group commenced when the safety of 25 mg was deemed acceptable by both the investigator and the sponsor's (Insmed Incorporated, Bridgewater, New Jersey) medical monitor.
Safety was assessed from the signing of informed consent until the end of study and included the following variables: treatment‐emergent adverse events (TEAEs), serious adverse events (SAEs), clinical laboratory tests (clinical chemistry, hematology, coagulation [part A only], and urinalysis), vital signs, 12‐lead ECG, primary Holter monitoring, and physical examinations (including evaluation of teeth and gingiva, and evaluation of palms and soles). Because of the mechanism of action of brensocatib, findings of hyperkeratosis, periodontitis/gingivitis, and other infections were reported as adverse events of special interest (AESIs). Renal function (part A only) was monitored by measuring serum creatinine and blood urea nitrogen, performing routine urinalysis, and measuring neutrophil gelatinase–associated lipocalin and cystatin.
Adverse events (AEs) observed before the first dosing were recorded as medical history. All medical history and AEs were coded using the Medical Dictionary for Regulatory Activities (version 21.1 or higher). A TEAE was defined as an AE that began or worsened in severity after at least 1 dose of study drug was administered. All AEs experienced by a participant were monitored until the event had resolved, any abnormal laboratory values returned to baseline or stabilized, a satisfactory explanation for the changes was identified, or the participant was lost to follow‐up.

CYP2C19 = tested on: CYP2C19; design: method as in unpublished data; settings: ref unpublished data; cited from earlier work
CYP2D6 = tested on: CYP2D6; design: method as in unpublished data; settings: ref unpublished data, read-out: half maximal inhibitory concentration; cited from earlier work
CYP2B6 = tested on: CYP2B6; design: method as in unpublished data; settings: ref unpublished data; cited from earlier work
CYP1A2 = tested on: CYP1A2; design: method as in unpublished data; settings: ref unpublished data; cited from earlier work
P‐gp = tested on: P‐gp; design: method as in unpublished data; settings: ref unpublished data, read-out: half maximal inhibitory concentration; cited from earlier work
[2] = design: method as in unpublished data; settings: oral or intravenous 14C‐brensocatib, rats; ref unpublished data; cited from earlier work
Caco‐2 monolayers = tested on: Caco‐2 monolayers; design: method as in unpublished data; settings: ref unpublished data; cited from earlier work
[3] = tested on: breast cancer resistance protein; design: method as in unpublished data; settings: ref unpublished data; cited from earlier work

For `Cn1c(=O)oc2ccc(-c3ccc(C[C@@H](C#N)NC(=O)[C@@H]4CNCCCO4)cc3)cc21` [Brensocatib], the CYP inhibition (CYP2C9) is given as “no effect”, the “Any TEAE” value ([1]; 10 mg, Japanese (n=8)) is given as 3 (37.5) n (%) and the “Headache (TEAE)” value ([1]; 10 mg, Japanese (n=8)) is given as 0 n (%). The “Nasopharyngitis (TEAE)” value ([1]; 10 mg, Japanese (n=8)) was 0 n (%), the SAE ([1]; 10 mg, Japanese (n=8)) was 0 n (%) and the “Severe TEAE” value ([1]; 10 mg, Japanese (n=8)) was 0 n (%). For the same compound, the “Skin exfoliation (TEAE)” value ([1]; 10 mg, Japanese (n=8)) was 1 (12.5) n (%), the “TEAE leading to death” value ([1]; 10 mg, Japanese (n=8)) was 0 n (%) and the “TEAE leading to discontinuation” value ([1]; 10 mg, Japanese (n=8)) was 0 n (%). The “Any TEAE” value ([1]; 10 mg, White (n=8)) was 6 (75.0) n (%), the “Headache (TEAE)” value ([1]; 10 mg, White (n=8)) was 1 (12.5) n (%) and the “Nasopharyngitis (TEAE)” value ([1]; 10 mg, White (n=8)) was 2 (25.0) n (%). The SAE ([1]; 10 mg, White (n=8)) was 0 n (%), the “Severe TEAE” value ([1]; 10 mg, White (n=8)) was 0 n (%) and the “Skin exfoliation (TEAE)” value ([1]; 10 mg, White (n=8)) was 0 n (%). The “TEAE leading to death” value ([1]; 10 mg, White (n=8)) was 0 n (%), the “TEAE leading to discontinuation” value ([1]; 10 mg, White (n=8)) was 0 n (%) and the “Any TEAE” value ([1]; 25 mg, Japanese (n=9)) was 5 (55.6) n (%). For the same compound, the “Headache (TEAE)” value ([1]; 25 mg, Japanese (n=9)) was 3 (33.3) n (%), the “Nasopharyngitis (TEAE)” value ([1]; 25 mg, Japanese (n=9)) was 0 n (%) and the SAE ([1]; 25 mg, Japanese (n=9)) was 0 n (%). For the same compound, the “Severe TEAE” value ([1]; 25 mg, Japanese (n=9)) was 0 n (%), the “Skin exfoliation (TEAE)” value ([1]; 25 mg, Japanese (n=9)) was 2 (22.2) n (%) and the “TEAE leading to death” value ([1]; 25 mg, Japanese (n=9)) was 0 n (%). For the same compound, the “TEAE leading to discontinuation” value ([1]; 25 mg, Japanese (n=9)) was 0 n (%), the “Any TEAE” value ([1]; 25 mg, White (n=8)) was 5 (62.5) n (%) and the “Headache (TEAE)” value ([1]; 25 mg, White (n=8)) was 1 (12.5) n (%). For the same compound, the “Nasopharyngitis (TEAE)” value ([1]; 25 mg, White (n=8)) was 0 n (%), the SAE ([1]; 25 mg, White (n=8)) was 0 n (%) and the “Severe TEAE” value ([1]; 25 mg, White (n=8)) was 0 n (%). The “Skin exfoliation (TEAE)” value ([1]; 25 mg, White (n=8)) was 1 (12.5) n (%), the “TEAE leading to death” value ([1]; 25 mg, White (n=8)) was 0 n (%) and the “TEAE leading to discontinuation” value ([1]; 25 mg, White (n=8)) was 0 n (%). The “Any TEAE” value ([1]; 40 mg, Japanese (n=8)) was 3 (37.5) n (%), the “Headache (TEAE)” value ([1]; 40 mg, Japanese (n=8)) was 0 n (%) and the “Nasopharyngitis (TEAE)” value ([1]; 40 mg, Japanese (n=8)) was 0 n (%). For the same compound, the SAE ([1]; 40 mg, Japanese (n=8)) was 0 n (%), the “Severe TEAE” value ([1]; 40 mg, Japanese (n=8)) was 0 n (%) and the “Skin exfoliation (TEAE)” value ([1]; 40 mg, Japanese (n=8)) was 0 n (%). For the same compound, the “TEAE leading to death” value ([1]; 40 mg, Japanese (n=8)) was 0 n (%), the “TEAE leading to discontinuation” value ([1]; 40 mg, Japanese (n=8)) was 1 (12.5) n (%) and the “Any TEAE” value ([1]; 40 mg, White (n=8)) was 5 (62.5) n (%). The “Headache (TEAE)” value ([1]; 40 mg, White (n=8)) was 2 (25.0) n (%), the “Nasopharyngitis (TEAE)” value ([1]; 40 mg, White (n=8)) was 0 n (%) and the SAE ([1]; 40 mg, White (n=8)) was 0 n (%). For the same compound, the “Severe TEAE” value ([1]; 40 mg, White (n=8)) was 0 n (%), the “Skin exfoliation (TEAE)” value ([1]; 40 mg, White (n=8)) was 1 (12.5) n (%) and the “TEAE leading to death” value ([1]; 40 mg, White (n=8)) was 0 n (%). For the same compound, the “TEAE leading to discontinuation” value ([1]; 40 mg, White (n=8)) was 0 n (%), the “Any TEAE” value ([1]; pooled brensocatib (N=49)) was 27 (55.1) n (%) and the “Headache (TEAE)” value ([1]; pooled brensocatib (N=49)) was 7 (14.3) n (%). The “Nasopharyngitis (TEAE)” value ([1]; pooled brensocatib (N=49)) was 2 (4.1) n (%), the SAE ([1]; pooled brensocatib (N=49)) was 0 n (%) and the “Severe TEAE” value ([1]; pooled brensocatib (N=49)) was 0 n (%). For the same compound, the “Skin exfoliation (TEAE)” value ([1]; pooled brensocatib (N=49)) was 5 (10.2) n (%), the “TEAE leading to death” value ([1]; pooled brensocatib (N=49)) was 0 n (%) and the “TEAE leading to discontinuation” value ([1]; pooled brensocatib (N=49)) was 1 (2.0) n (%). For the same compound, the Renal toxicity assessments ([1]; part A) was “no signs of acute kidney injury”, the “participants treated with brensocatib who experienced ≥1 TEAE” value ([1]; part A) was 55.1% and the “AESIs (hyperkeratosis, periodontitis/gingivitis, other infections)” value ([1]; parts A and B) was “None of these AESIs were evident”. The “SAEs, severe TEAEs, deaths during the study” value ([1]; parts A and B) was “No SAEs, severe TEAEs, or deaths occurred”, the tolerability ([1]; single and multiple administration 10, 25, and 40 mg for 28 days, healthy Japanese and White participants) was “well tolerated” and the CYP inhibition (CYP2C19) was “no effect”. The IC50 (CYP2D6) was over 30 µM, the “CYP induction (significant inducer or not)” value (CYP2B6) was “not a significant” and the “CYP induction (significant inducer or not)” value (CYP1A2) was “not a significant”. The IC50 (P‐gp) was over 11 µM, the “brensocatib in plasma, share of total radioactivity exposure” value [2] was over 80% and the “most abundant metabolite in plasma, share of total radioactivity exposure” value [2] was “≈ 3%”. For the same compound, the “apparent permeability from apical side to basolateral side” value (Caco‐2 monolayers) was 9.03 × 10^–6 cm/s and the substrate status [3] was “substrate”.
